Reference: ChEMBL document CHEMBL1201862, “PubChem BioAssay data set” (2004)
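Test compounds were applied to cells in 96-well plates for 48 hours at 5 doses. At the GI50, growth is halved.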 Calls of active or inactive are those of the source. Rule as the data show it: active = GI50 up to about 1.1 µM and inactive = higher.

Key:
Experiment in all cases: NCI-60 cell line screen, 48 h
ACHN = test system: ACHN
NCI-H23 = test system: NCI-H23
A549 = test system: A549
OVCAR-3 = test system: OVCAR-3
OVCAR-8 = test system: OVCAR-8
OVCAR-4 = test system: OVCAR-4
UO-31 = test system: UO-31
TK-10 = test system: TK-10
UACC-257 = test system: UACC-257
HCT-116 = test system: HCT-116
SK-MEL-28 = test system: SK-MEL-28
SF-539 = test system: SF-539
SF-268 = test system: SF-268
NCI-H226 = test system: NCI-H226
IGROV-1 = test system: IGROV-1
SW-620 = test system: SW-620
UACC-62 = test system: UACC-62
NCI-H460 = test system: NCI-H460
HCC 2998 = test system: HCC 2998
MCF7 = test system: MCF7

Row | Compound | GI50 (ACHN) | GI50 (NCI-H23) | GI50 (A549) | GI50 (OVCAR-3) | GI50 (OVCAR-8) | GI50 (OVCAR-4) | GI50 (UO-31) | GI50 (TK-10) | GI50 (UACC-257) | GI50 (HCT-116) | GI50 (SK-MEL-28) | GI50 (SF-539) | GI50 (SF-268) | GI50 (NCI-H226) | GI50 (IGROV-1) | GI50 (SW-620) | GI50 (UACC-62) | GI50 (NCI-H460) | GI50 (HCC 2998) | GI50 (MCF7)
1 | Oc1cc(-c2ccc(Oc3ccccc3)cc2)nc2cc3c(cc12)OCO3 | > 100 µM (inactive) | > 100 µM (inactive) | > 100 µM (inactive) | > 100 µM (inactive) | > 100 µM (inactive) | > 100 µM (inactive) | > 100 µM (inactive) | > 100 µM (inactive) | > 100 µM (inactive) | > 100 µM (inactive) | > 100 µM (inactive) | > 100 µM (inactive) | > 100 µM (inactive) | 27.5 µM (inactive) | > 100 µM (inactive) | > 100 µM (inactive) | > 100 µM (inactive) | > 100 µM (inactive) | > 100 µM (inactive) | 
2 | O=C(O)CNCCc1ccccc1 | > 100 µM (inactive) | > 100 µM (inactive) | > 100 µM (inactive) | > 100 µM (inactive) | > 100 µM (inactive) | > 100 µM (inactive) | > 100 µM (inactive) | > 100 µM (inactive) |  | > 100 µM (inactive) | > 100 µM (inactive) |  | > 100 µM (inactive) | > 100 µM (inactive) | > 100 µM (inactive) | > 100 µM (inactive) | > 100 µM (inactive) | > 100 µM (inactive) |  | > 100 µM (inactive)
3 | Cc1ccnc(NC(=S)Nc2ccccc2Cl)c1 |  |  | > 100 µM (inactive) | > 100 µM (inactive) | 77.8 µM (inactive) | > 100 µM (inactive) | > 100 µM (inactive) | > 100 µM (inactive) | > 100 µM (inactive) | > 100 µM (inactive) | > 100 µM (inactive) | > 100 µM (inactive) | 33.6 µM (inactive) | 63.5 µM (inactive) | 61.2 µM (inactive) | > 100 µM (inactive) | 63.1 µM (inactive) | > 100 µM (inactive) |  | > 100 µM (inactive)
4 | CC(=O)c1ccc(OCC(O)CO)cc1 (centres undefined) | > 100 µM (inactive) | > 100 µM (inactive) | 94.2 µM (inactive) | > 100 µM (inactive) | > 100 µM (inactive) | > 100 µM (inactive) | > 100 µM (inactive) | > 100 µM (inactive) | > 100 µM (inactive) | 17.3 µM (inactive) | > 100 µM (inactive) | > 100 µM (inactive) | > 100 µM (inactive) | > 100 µM (inactive) | > 100 µM (inactive) | 14.9 µM (inactive) | > 100 µM (inactive) | > 100 µM (inactive) | > 100 µM (inactive) | 
5 | O=C(CC1(O)C(=O)Nc2ccccc21)c1ccc2ccccc2c1 (centres undefined) | > 100 µM (inactive) | > 100 µM (inactive) | > 100 µM (inactive) | > 100 µM (inactive) | > 100 µM (inactive) | > 100 µM (inactive) | 44.7 µM (inactive) | > 100 µM (inactive) | > 100 µM (inactive) | > 100 µM (inactive) | > 100 µM (inactive) | > 100 µM (inactive) | > 100 µM (inactive) | 29.2 µM (inactive) | > 100 µM (inactive) | > 100 µM (inactive) | > 100 µM (inactive) | > 100 µM (inactive) | > 100 µM (inactive) | 
6 | COC1OC(C(C)O)C2OC(C)(C)OC12 (centres undefined) | > 100 µM (inactive) | > 100 µM (inactive) | > 100 µM (inactive) | > 100 µM (inactive) | > 100 µM (inactive) | > 100 µM (inactive) | > 100 µM (inactive) | > 100 µM (inactive) | > 100 µM (inactive) | > 100 µM (inactive) | > 100 µM (inactive) | > 100 µM (inactive) | > 100 µM (inactive) | > 100 µM (inactive) | > 100 µM (inactive) | > 100 µM (inactive) | > 100 µM (inactive) | > 100 µM (inactive) |  | > 100 µM (inactive)
7 | COC(=O)CC(=O)OSc1ccccc1 | 18.2 µM (inactive) | 24.7 µM (inactive) | 12.5 µM (inactive) | 14.6 µM (inactive) |  | 28.6 µM (inactive) | 12.2 µM (inactive) | 43 µM (inactive) | 25.4 µM (inactive) | 12.9 µM (inactive) |  | 12.3 µM (inactive) |  | 24.6 µM (inactive) | 7.71 µM (inactive) | 18.1 µM (inactive) | 14.9 µM (inactive) | 38.5 µM (inactive) | 28.1 µM (inactive) | 
8 | NS(=O)(=O)c1ccc(NC(=O)C2C(=O)C(=O)N(c3ccc(S(N)(=O)=O)cc3)C2=O)cc1 (centres undefined) | > 100 µM (inactive) | > 100 µM (inactive) | > 100 µM (inactive) | > 100 µM (inactive) | > 100 µM (inactive) | > 100 µM (inactive) | > 100 µM (inactive) | > 100 µM (inactive) | > 100 µM (inactive) | > 100 µM (inactive) | > 100 µM (inactive) | > 100 µM (inactive) | > 100 µM (inactive) | > 100 µM (inactive) | > 100 µM (inactive) | > 100 µM (inactive) | > 100 µM (inactive) |  | > 100 µM (inactive) | 
9 | COc1ccc(-c2c(C(C)=O)c(C)n(C3OC(CO)C(O)C(O)C3O)c(=S)c2C#N)cc1 (centres undefined) | 80.2 µM (inactive) | 68.1 µM (inactive) | > 100 µM (inactive) | > 100 µM (inactive) | 58.2 µM (inactive) | 95.5 µM (inactive) | > 100 µM (inactive) | > 100 µM (inactive) | > 100 µM (inactive) | 86.9 µM (inactive) | 44.6 µM (inactive) | 36.1 µM (inactive) | > 100 µM (inactive) |  | > 100 µM (inactive) | 78.5 µM (inactive) | 28 µM (inactive) | > 100 µM (inactive) |  | > 100 µM (inactive)
10 | COc1ccc(C[C@@H]2OC3(C=CC(=O)CC3Sc3ccccc3)O[C@H]2Cc2ccc(OC)cc2)cc1 (some centres undefined) | 1.36 µM (inactive) | 1.71 µM (inactive) | 3.23 µM (inactive) | 1.64 µM (inactive) | 0.29 µM (active) | 1.6 µM (inactive) | 1.09 µM (active) | 1.67 µM (inactive) | 1.47 µM (inactive) |  | 1.86 µM (inactive) | 1.64 µM (inactive) | 0.335 µM (active) | 1.53 µM (inactive) | 0.904 µM (active) | 0.303 µM (active) | 2.15 µM (inactive) | 3.01 µM (inactive) |  | 0.388 µM (active)
11 | CC(=O)Nc1ccc(/C=C(\NC(=O)c2ccccc2)C(=O)NNS(=O)(=O)c2ccc(C)cc2)cc1 | > 100 µM (inactive) | > 100 µM (inactive) | > 100 µM (inactive) | > 100 µM (inactive) | > 100 µM (inactive) | > 100 µM (inactive) | > 100 µM (inactive) | > 100 µM (inactive) | > 100 µM (inactive) | > 100 µM (inactive) | > 100 µM (inactive) | > 100 µM (inactive) | 78.9 µM (inactive) | > 100 µM (inactive) | > 100 µM (inactive) |  | > 100 µM (inactive) | 50.2 µM (inactive) | > 100 µM (inactive) | 
12 | O=C(c1ccco1)c1ccccc1C(=O)c1ccco1 | > 100 µM (inactive) | > 100 µM (inactive) | > 100 µM (inactive) | > 100 µM (inactive) | > 100 µM (inactive) | > 100 µM (inactive) | > 100 µM (inactive) | > 100 µM (inactive) | > 100 µM (inactive) | > 100 µM (inactive) | > 100 µM (inactive) | > 100 µM (inactive) | > 100 µM (inactive) | > 100 µM (inactive) | > 100 µM (inactive) | > 100 µM (inactive) | > 100 µM (inactive) | > 100 µM (inactive) | > 100 µM (inactive) | 
13 | CSC1=N/C(=C\c2ccc(C)cc2)C(=O)N1CN1CCCCC1 | 59.6 µM (inactive) | > 100 µM (inactive) | 83.4 µM (inactive) | > 100 µM (inactive) | > 100 µM (inactive) | 22.4 µM (inactive) | 37.2 µM (inactive) | > 100 µM (inactive) |  | 84.9 µM (inactive) | > 100 µM (inactive) |  | 61.8 µM (inactive) | > 100 µM (inactive) | 46.6 µM (inactive) | 44.7 µM (inactive) | > 100 µM (inactive) |  |  | 88.1 µM (inactive)
14 | COC(=O)CNCC1OC2OC(C)(C)OC2C1N=[N+]=[N-] (centres undefined) | > 100 µM (inactive) |  | > 100 µM (inactive) | > 100 µM (inactive) | > 100 µM (inactive) | > 100 µM (inactive) | > 100 µM (inactive) | > 100 µM (inactive) | > 100 µM (inactive) | > 100 µM (inactive) | > 100 µM (inactive) | > 100 µM (inactive) |  | > 100 µM (inactive) | > 100 µM (inactive) | > 100 µM (inactive) | > 100 µM (inactive) | > 100 µM (inactive) |  | > 100 µM (inactive)
15 | Nc1ccc(N)c2c1C(=O)c1ccccc1C2=O | 4.66 µM (inactive) | 17.7 µM (inactive) | 24.4 µM (inactive) | 43.9 µM (inactive) | 76.2 µM (inactive) | > 100 µM (inactive) | 12.4 µM (inactive) | 4.08 µM (inactive) | > 100 µM (inactive) | 11.1 µM (inactive) | > 100 µM (inactive) | 34.4 µM (inactive) | 51.3 µM (inactive) | > 100 µM (inactive) | 6.44 µM (inactive) | 32.7 µM (inactive) | 15.7 µM (inactive) | 9.51 µM (inactive) | 3.97 µM (inactive) | 
